Each compound was assayed on endothelial tube formation in co-cultures of ECFCs and ADSCs treated with VEGF (assay: cells). Conditions: not given.
Type: cell-based, human

SMILES	VEGF_ADSC\ECFC Angio CD31 TubeArea IC50/EC50 [µM]	IC50/EC50, VEGF_ADSC\ECFC Angio CD31 TubeArea (assay number 2) [µM]
COCc1c(C(C)C)nc(C(C)C)c(/C=C/[C@@H](O)C[C@@H](O)CC(=O)[O-])c1-c1ccc(F)cc1.[Na+] [NCGC00164625-04]	0.0894	
CCCSc1ccc2nc(NC(=O)OC)[nH]c2c1 [NCGC00016876-12]		0.3554

The compounds below were run on nuclear β-catenin in C2C12 cells (assay: cells). Conditions: assay number 5; concentration response.
Type: cell-based

SMILES	WntCondMedia_bCatenin C2C12 IC50/EC50 [µM]
COCc1c(C(C)C)nc(C(C)C)c(/C=C/[C@@H](O)C[C@@H](O)CC(=O)[O-])c1-c1ccc(F)cc1.[Na+] [NCGC00164625-04]	> 6.667

Same assay, conditions: concentration response

SMILES	IC50/EC50, WntCondMedia_bCatenin C2C12 (assay number 5) [µM]
CCCSc1ccc2nc(NC(=O)OC)[nH]c2c1 [NCGC00016876-12]	1.2764

These compounds were tested on alkaline phosphatase (ALP) activity in C2C12 cells (assay: not given). Conditions: assay number 6; concentration response.
Type: cell-based

SMILES	WntCondMedia_Alk Phos C2C12 IC50/EC50 [µM]
COCc1c(C(C)C)nc(C(C)C)c(/C=C/[C@@H](O)C[C@@H](O)CC(=O)[O-])c1-c1ccc(F)cc1.[Na+] [NCGC00164625-04]	> 20

Same assay, conditions: concentration response

SMILES	IC50/EC50, WntCondMedia_Alk Phos C2C12 (assay number 6) [µM]
CCCSc1ccc2nc(NC(=O)OC)[nH]c2c1 [NCGC00016876-12]	12.2685

What follows are compounds tested on HeLa cells (assay: cells). Conditions: 2N.
Type: cell-based

SMILES	IC50/EC50, Hela CellCycMod PI 2N (assay number 14) [µM]
CCCSc1ccc2nc(NC(=O)OC)[nH]c2c1 [NCGC00016876-12]	0.0656

Same assay, conditions: 4N

SMILES	IC50/EC50, Hela CellCycMod PI 4N (assay number 16) [µM]
CCCSc1ccc2nc(NC(=O)OC)[nH]c2c1 [NCGC00016876-12]	0.0612

Same assay, conditions: Cell Number

SMILES	IC50/EC50, Hela CellCycMod PI Cell Number (assay number 18) [µM]
CCCSc1ccc2nc(NC(=O)OC)[nH]c2c1 [NCGC00016876-12]	0.0377

Same assay, conditions: MI

SMILES	IC50/EC50, Hela CellCycMod PI MI (assay number 17) [µM]
CCCSc1ccc2nc(NC(=O)OC)[nH]c2c1 [NCGC00016876-12]	0.0615

Same assay, conditions: S Phase

SMILES	IC50/EC50, Hela CellCycMod PI S Phase (assay number 15) [µM]
CCCSc1ccc2nc(NC(=O)OC)[nH]c2c1 [NCGC00016876-12]	> 10

Same assay, conditions: assay number 14; 2N

SMILES	Hela CellCycMod PI 2N IC50/EC50 [µM]
COCc1c(C(C)C)nc(C(C)C)c(/C=C/[C@@H](O)C[C@@H](O)CC(=O)[O-])c1-c1ccc(F)cc1.[Na+] [NCGC00164625-04]	> 10

Same assay, conditions: assay number 15; S phase

SMILES	Hela CellCycMod PI S Phase IC50/EC50 [µM]
COCc1c(C(C)C)nc(C(C)C)c(/C=C/[C@@H](O)C[C@@H](O)CC(=O)[O-])c1-c1ccc(F)cc1.[Na+] [NCGC00164625-04]	> 10

Same assay, conditions: assay number 16; 4N

SMILES	Hela CellCycMod PI 4N IC50/EC50 [µM]
COCc1c(C(C)C)nc(C(C)C)c(/C=C/[C@@H](O)C[C@@H](O)CC(=O)[O-])c1-c1ccc(F)cc1.[Na+] [NCGC00164625-04]	> 10

Same assay, conditions: assay number 17; MI

SMILES	Hela CellCycMod PI MI IC50/EC50 [µM]
COCc1c(C(C)C)nc(C(C)C)c(/C=C/[C@@H](O)C[C@@H](O)CC(=O)[O-])c1-c1ccc(F)cc1.[Na+] [NCGC00164625-04]	> 10

Same assay, conditions: assay number 18; cell number

SMILES	Hela CellCycMod PI Cell Number IC50/EC50 [µM]
COCc1c(C(C)C)nc(C(C)C)c(/C=C/[C@@H](O)C[C@@H](O)CC(=O)[O-])c1-c1ccc(F)cc1.[Na+] [NCGC00164625-04]	> 10

What follows are compounds tested on DLD-1 (assay: cells). Conditions: assay number 23; basal.
Type: cell-based

SMILES	Basal_Viability ATP DLD-1 IC50/EC50 [µM]
COCc1c(C(C)C)nc(C(C)C)c(/C=C/[C@@H](O)C[C@@H](O)CC(=O)[O-])c1-c1ccc(F)cc1.[Na+] [NCGC00164625-04]	2.507

Same assay, conditions: basal

SMILES	IC50/EC50, Basal_Viability ATP DLD-1 (assay number 23) [µM]
CCCSc1ccc2nc(NC(=O)OC)[nH]c2c1 [NCGC00016876-12]	0.1085

These compounds were tested on SW480 (assay: cells). Conditions: assay number 24; basal.
Type: cell-based

SMILES	Basal_Viability ATP SW480 IC50/EC50 [µM]
COCc1c(C(C)C)nc(C(C)C)c(/C=C/[C@@H](O)C[C@@H](O)CC(=O)[O-])c1-c1ccc(F)cc1.[Na+] [NCGC00164625-04]	0.1433

Same assay, conditions: basal

SMILES	IC50/EC50, Basal_Viability ATP SW480 (assay number 24) [µM]
CCCSc1ccc2nc(NC(=O)OC)[nH]c2c1 [NCGC00016876-12]	> 20

The compounds below were run on HCT116 (assay: cells). Conditions: assay number 25; basal.
Type: cell-based

SMILES	Basal_Viability ATP HCT116 IC50/EC50 [µM]
COCc1c(C(C)C)nc(C(C)C)c(/C=C/[C@@H](O)C[C@@H](O)CC(=O)[O-])c1-c1ccc(F)cc1.[Na+] [NCGC00164625-04]	0.2403

Same assay, conditions: basal

SMILES	IC50/EC50, Basal_Viability ATP HCT116 (assay number 25) [µM]
CCCSc1ccc2nc(NC(=O)OC)[nH]c2c1 [NCGC00016876-12]	0.1118

Each compound was assayed on HCT116 cells treated with a GSK3β inhibitor (assay: cells). Conditions: GSK3b inh pretreated.
Type: cell-based

SMILES	IC50/EC50, GSK3b inh pretreated_Viability ATP HCT116 (assay number 26) [µM]
CCCSc1ccc2nc(NC(=O)OC)[nH]c2c1 [NCGC00016876-12]	0.1579

Same assay, conditions: assay number 26; GSK3b inhibitor pretreated

SMILES	GSK3b inh pretreated_Viability ATP HCT116 IC50/EC50 [µM]
COCc1c(C(C)C)nc(C(C)C)c(/C=C/[C@@H](O)C[C@@H](O)CC(=O)[O-])c1-c1ccc(F)cc1.[Na+] [NCGC00164625-04]	0.05291

These compounds were tested on Colo320 (assay: cells). Conditions: assay number 27; basal.
Type: cell-based

SMILES	Basal_Viability ATP Colo 320 IC50/EC50 [µM]
COCc1c(C(C)C)nc(C(C)C)c(/C=C/[C@@H](O)C[C@@H](O)CC(=O)[O-])c1-c1ccc(F)cc1.[Na+] [NCGC00164625-04]	1.924

Same assay, conditions: basal

SMILES	IC50/EC50, Basal_Viability ATP Colo 320 (assay number 27) [µM]
CCCSc1ccc2nc(NC(=O)OC)[nH]c2c1 [NCGC00016876-12]	0.502

These compounds were tested on HT-29 (assay: cells). Conditions: assay number 28; basal.
Type: cell-based

SMILES	Basal_Viability ATP HT-29 IC50/EC50 [µM]
COCc1c(C(C)C)nc(C(C)C)c(/C=C/[C@@H](O)C[C@@H](O)CC(=O)[O-])c1-c1ccc(F)cc1.[Na+] [NCGC00164625-04]	1.212

Same assay, conditions: basal

SMILES	IC50/EC50, Basal_Viability ATP HT-29 (assay number 28) [µM]
CCCSc1ccc2nc(NC(=O)OC)[nH]c2c1 [NCGC00016876-12]	> 20

The compounds below were run on RKO (assay: cells). Conditions: assay number 29; basal.
Type: cell-based

SMILES	Basal_Viability ATP RKO IC50/EC50 [µM]
COCc1c(C(C)C)nc(C(C)C)c(/C=C/[C@@H](O)C[C@@H](O)CC(=O)[O-])c1-c1ccc(F)cc1.[Na+] [NCGC00164625-04]	1.013

Same assay, conditions: basal

SMILES	IC50/EC50, Basal_Viability ATP RKO (assay number 29) [µM]
CCCSc1ccc2nc(NC(=O)OC)[nH]c2c1 [NCGC00016876-12]	0.1653

Each compound was assayed on SNU-C1 (assay: cells). Conditions: assay number 30; basal.
Type: cell-based

SMILES	Basal_Viability ATP SNU-C1 IC50/EC50 [µM]
COCc1c(C(C)C)nc(C(C)C)c(/C=C/[C@@H](O)C[C@@H](O)CC(=O)[O-])c1-c1ccc(F)cc1.[Na+] [NCGC00164625-04]	1.8733

Same assay, conditions: basal

SMILES	IC50/EC50, Basal_Viability ATP SNU-C1 (assay number 30) [µM]
CCCSc1ccc2nc(NC(=O)OC)[nH]c2c1 [NCGC00016876-12]	> 20

Each compound was assayed against T1, hp70S6K1 (RPS6KB1) (Homo sapiens, UniProt P23443) (assay: Cerep LANCE kinase assay hp70S6K1 (S1 assay 31)). Conditions: not given.
T1 construct: purchased Cerep (LANCE kinase assay platform, contract assay)
T1 sequence (P23443 whole entry): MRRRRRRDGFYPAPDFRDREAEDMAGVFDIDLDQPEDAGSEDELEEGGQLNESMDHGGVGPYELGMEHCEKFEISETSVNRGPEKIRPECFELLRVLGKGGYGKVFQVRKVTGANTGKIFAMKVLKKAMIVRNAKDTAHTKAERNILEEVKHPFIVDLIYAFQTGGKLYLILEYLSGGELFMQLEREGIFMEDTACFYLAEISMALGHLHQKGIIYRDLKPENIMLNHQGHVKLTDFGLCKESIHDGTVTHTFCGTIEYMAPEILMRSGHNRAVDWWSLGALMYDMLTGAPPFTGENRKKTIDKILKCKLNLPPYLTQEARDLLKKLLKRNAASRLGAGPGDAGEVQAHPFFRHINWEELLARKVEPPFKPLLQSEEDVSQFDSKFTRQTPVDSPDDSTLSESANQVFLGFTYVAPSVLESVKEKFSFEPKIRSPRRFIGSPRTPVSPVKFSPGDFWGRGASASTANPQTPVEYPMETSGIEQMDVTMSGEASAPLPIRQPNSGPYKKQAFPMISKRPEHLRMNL
Type: biochemical

SMILES	IC50/EC50, hp70S6K1 LANCE (assay number 31) [µM]
CCCSc1ccc2nc(NC(=O)OC)[nH]c2c1 [NCGC00016876-12]	> 20

Same assay, conditions: assay number 31

SMILES	hp70S6K1 LANCE IC50/EC50 [µM]
COCc1c(C(C)C)nc(C(C)C)c(/C=C/[C@@H](O)C[C@@H](O)CC(=O)[O-])c1-c1ccc(F)cc1.[Na+] [NCGC00164625-04]	> 20

The compounds below were run against T2, hKDR (Homo sapiens, UniProt P35968) (assay: Cerep LANCE kinase assay hKDR (S1 assay 32)). Conditions: not given.
T2 construct: purchased Cerep (LANCE kinase assay platform, contract assay)
T2 sequence (P35968 20-1356): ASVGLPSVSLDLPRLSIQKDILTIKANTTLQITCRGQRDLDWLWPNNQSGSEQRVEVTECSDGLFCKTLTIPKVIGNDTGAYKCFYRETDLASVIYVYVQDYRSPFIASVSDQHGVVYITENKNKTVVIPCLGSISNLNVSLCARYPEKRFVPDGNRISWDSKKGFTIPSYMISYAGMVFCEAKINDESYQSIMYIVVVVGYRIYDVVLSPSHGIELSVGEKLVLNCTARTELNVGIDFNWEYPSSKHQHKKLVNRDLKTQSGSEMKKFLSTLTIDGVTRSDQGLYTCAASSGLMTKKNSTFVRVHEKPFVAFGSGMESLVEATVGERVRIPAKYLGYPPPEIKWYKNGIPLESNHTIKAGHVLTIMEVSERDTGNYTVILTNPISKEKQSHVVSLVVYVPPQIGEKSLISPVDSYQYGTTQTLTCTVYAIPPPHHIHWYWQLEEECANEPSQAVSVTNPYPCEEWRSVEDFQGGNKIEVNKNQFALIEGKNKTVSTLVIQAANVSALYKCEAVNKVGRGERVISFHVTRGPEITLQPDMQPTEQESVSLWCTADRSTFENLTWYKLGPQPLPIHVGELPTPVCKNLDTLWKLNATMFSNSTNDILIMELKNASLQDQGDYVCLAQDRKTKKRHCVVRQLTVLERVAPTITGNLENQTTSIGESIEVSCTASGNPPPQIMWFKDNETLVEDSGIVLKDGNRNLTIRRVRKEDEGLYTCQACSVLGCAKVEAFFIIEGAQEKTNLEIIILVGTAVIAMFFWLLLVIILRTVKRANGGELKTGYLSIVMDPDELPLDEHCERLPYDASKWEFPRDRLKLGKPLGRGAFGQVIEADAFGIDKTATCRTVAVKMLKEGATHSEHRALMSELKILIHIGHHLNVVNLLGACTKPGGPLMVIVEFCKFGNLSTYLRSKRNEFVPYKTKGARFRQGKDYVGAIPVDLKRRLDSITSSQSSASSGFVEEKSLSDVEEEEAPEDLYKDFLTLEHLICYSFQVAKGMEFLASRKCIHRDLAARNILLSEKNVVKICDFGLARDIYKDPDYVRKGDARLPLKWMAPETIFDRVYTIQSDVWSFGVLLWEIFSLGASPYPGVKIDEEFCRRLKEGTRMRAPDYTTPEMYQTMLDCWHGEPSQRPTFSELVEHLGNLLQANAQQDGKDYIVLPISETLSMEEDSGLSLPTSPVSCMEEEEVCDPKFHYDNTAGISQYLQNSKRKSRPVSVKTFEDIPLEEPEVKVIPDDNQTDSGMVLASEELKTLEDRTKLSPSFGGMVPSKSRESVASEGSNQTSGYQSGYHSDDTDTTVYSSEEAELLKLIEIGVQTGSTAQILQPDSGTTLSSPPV
Type: biochemical

SMILES	IC50/EC50, hKDR LANCE (assay number 32) [µM]
CCCSc1ccc2nc(NC(=O)OC)[nH]c2c1 [NCGC00016876-12]	> 20

Same assay, conditions: assay number 32

SMILES	hKDR LANCE IC50/EC50 [µM]
COCc1c(C(C)C)nc(C(C)C)c(/C=C/[C@@H](O)C[C@@H](O)CC(=O)[O-])c1-c1ccc(F)cc1.[Na+] [NCGC00164625-04]	> 20

These compounds were tested against T3, hJAK2 (Homo sapiens, UniProt O60674) (assay: Cerep LANCE kinase assay hJAK2 (S1 assay 33)). Conditions: not given.
T3 construct: purchased Cerep (LANCE kinase assay platform, contract assay)
T3 sequence (O60674 whole entry): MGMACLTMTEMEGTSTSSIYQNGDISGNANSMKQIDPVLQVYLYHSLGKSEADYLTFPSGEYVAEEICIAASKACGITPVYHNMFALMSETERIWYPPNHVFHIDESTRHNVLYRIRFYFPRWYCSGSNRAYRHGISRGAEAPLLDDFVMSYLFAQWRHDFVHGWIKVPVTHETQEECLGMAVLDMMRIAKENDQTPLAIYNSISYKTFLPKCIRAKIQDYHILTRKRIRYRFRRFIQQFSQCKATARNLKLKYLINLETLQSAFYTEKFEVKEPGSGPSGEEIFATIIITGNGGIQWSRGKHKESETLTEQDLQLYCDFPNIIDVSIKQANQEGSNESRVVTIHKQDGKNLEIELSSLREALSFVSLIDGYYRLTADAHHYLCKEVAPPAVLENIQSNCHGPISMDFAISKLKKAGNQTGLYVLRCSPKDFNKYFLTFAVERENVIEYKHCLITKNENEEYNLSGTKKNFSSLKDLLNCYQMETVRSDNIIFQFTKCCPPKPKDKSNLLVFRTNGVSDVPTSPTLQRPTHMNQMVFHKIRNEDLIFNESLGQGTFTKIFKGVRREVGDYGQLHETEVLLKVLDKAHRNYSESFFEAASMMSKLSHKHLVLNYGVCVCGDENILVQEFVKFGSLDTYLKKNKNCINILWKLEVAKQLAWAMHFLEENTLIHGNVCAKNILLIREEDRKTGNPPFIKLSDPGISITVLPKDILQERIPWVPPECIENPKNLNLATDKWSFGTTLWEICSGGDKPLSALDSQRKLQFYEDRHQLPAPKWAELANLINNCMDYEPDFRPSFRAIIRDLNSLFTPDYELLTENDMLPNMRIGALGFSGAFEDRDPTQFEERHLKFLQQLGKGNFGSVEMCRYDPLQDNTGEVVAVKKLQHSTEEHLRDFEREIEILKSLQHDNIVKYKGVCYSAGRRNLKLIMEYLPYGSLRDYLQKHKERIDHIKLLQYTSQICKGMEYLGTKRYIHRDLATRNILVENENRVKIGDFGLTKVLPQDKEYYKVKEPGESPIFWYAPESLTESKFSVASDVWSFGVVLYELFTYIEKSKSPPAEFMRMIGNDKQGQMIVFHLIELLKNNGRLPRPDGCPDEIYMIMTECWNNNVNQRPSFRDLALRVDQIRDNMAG
Type: biochemical

SMILES	IC50/EC50, hJAK2 LANCE (assay number 33) [µM]
CCCSc1ccc2nc(NC(=O)OC)[nH]c2c1 [NCGC00016876-12]	> 20

Same assay, conditions: assay number 33

SMILES	hJAK2 LANCE IC50/EC50 [µM]
COCc1c(C(C)C)nc(C(C)C)c(/C=C/[C@@H](O)C[C@@H](O)CC(=O)[O-])c1-c1ccc(F)cc1.[Na+] [NCGC00164625-04]	> 20

What follows are compounds tested against T4, hGSK3b (Homo sapiens, UniProt P49841) (assay: Cerep LANCE kinase assay hGSK3b (S1 assay 34)). Conditions: not given.
T4 construct: purchased Cerep (LANCE kinase assay platform, contract assay)
T4 sequence (P49841 whole entry): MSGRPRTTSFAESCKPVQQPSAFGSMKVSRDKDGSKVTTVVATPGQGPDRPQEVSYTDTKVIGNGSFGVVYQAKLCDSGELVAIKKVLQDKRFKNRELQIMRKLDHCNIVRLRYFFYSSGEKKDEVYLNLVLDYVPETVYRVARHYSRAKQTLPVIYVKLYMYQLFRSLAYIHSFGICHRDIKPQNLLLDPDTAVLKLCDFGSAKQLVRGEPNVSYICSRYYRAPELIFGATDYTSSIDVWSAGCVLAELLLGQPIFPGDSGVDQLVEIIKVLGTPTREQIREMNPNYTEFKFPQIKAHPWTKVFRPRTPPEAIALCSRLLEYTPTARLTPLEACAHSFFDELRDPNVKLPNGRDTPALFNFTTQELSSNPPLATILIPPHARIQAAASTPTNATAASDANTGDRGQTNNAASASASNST
Type: biochemical

SMILES	IC50/EC50, hGSK3b LANCE (assay number 34) [µM]
CCCSc1ccc2nc(NC(=O)OC)[nH]c2c1 [NCGC00016876-12]	> 20

Same assay, conditions: assay number 34

SMILES	hGSK3b LANCE IC50/EC50 [µM]
COCc1c(C(C)C)nc(C(C)C)c(/C=C/[C@@H](O)C[C@@H](O)CC(=O)[O-])c1-c1ccc(F)cc1.[Na+] [NCGC00164625-04]	> 20

What follows are compounds tested against T5, hFLT3 (Homo sapiens, UniProt P36888) (assay: Cerep LANCE kinase assay hFLT3 (S1 assay 35)). Conditions: not given.
T5 construct: purchased Cerep (LANCE kinase assay platform, contract assay)
T5 sequence (P36888 27-993): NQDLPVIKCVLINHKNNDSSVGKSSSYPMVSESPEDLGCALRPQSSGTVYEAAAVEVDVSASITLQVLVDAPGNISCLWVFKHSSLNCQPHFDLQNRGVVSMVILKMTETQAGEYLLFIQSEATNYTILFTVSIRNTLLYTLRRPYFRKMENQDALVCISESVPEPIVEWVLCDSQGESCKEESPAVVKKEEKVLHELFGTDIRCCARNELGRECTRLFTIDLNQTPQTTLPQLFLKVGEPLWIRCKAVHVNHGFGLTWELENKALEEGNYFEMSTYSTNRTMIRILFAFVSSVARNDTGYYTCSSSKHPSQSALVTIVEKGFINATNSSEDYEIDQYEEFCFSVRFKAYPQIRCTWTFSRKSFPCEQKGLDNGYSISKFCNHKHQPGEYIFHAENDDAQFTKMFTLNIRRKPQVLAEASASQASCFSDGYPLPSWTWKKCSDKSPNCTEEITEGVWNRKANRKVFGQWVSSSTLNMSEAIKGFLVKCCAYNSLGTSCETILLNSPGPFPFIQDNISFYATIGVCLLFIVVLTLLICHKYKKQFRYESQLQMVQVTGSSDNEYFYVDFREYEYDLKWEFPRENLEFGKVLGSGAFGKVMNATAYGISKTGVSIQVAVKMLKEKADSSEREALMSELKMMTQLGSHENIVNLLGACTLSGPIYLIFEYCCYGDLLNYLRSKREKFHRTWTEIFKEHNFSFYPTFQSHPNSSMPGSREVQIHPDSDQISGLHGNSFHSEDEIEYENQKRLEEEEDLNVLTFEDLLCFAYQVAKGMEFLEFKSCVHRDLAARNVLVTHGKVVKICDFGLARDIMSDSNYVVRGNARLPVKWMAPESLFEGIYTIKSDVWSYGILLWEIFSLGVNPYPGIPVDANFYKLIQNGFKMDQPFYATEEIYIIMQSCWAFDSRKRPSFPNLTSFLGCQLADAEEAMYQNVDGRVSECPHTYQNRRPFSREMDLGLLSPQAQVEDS
Type: biochemical

SMILES	IC50/EC50, hFLT3 LANCE (assay number 35) [µM]
CCCSc1ccc2nc(NC(=O)OC)[nH]c2c1 [NCGC00016876-12]	> 20

Same assay, conditions: assay number 35

SMILES	hFLT3 LANCE IC50/EC50 [µM]
COCc1c(C(C)C)nc(C(C)C)c(/C=C/[C@@H](O)C[C@@H](O)CC(=O)[O-])c1-c1ccc(F)cc1.[Na+] [NCGC00164625-04]	> 20

The compounds below were run on ECFC/ADSC co-culture cell nuclei number (assay: not given). Conditions: not given.

SMILES	VEGF_ADSC\ECFC Angio Hoechst NucArea IC50/EC50 [µM]	IC50/EC50, VEGF_ADSC\ECFC Angio Hoechst NucArea (assay number 3) [µM]
COCc1c(C(C)C)nc(C(C)C)c(/C=C/[C@@H](O)C[C@@H](O)CC(=O)[O-])c1-c1ccc(F)cc1.[Na+] [NCGC00164625-04]	0.259	
CCCSc1ccc2nc(NC(=O)OC)[nH]c2c1 [NCGC00016876-12]		> 10

Reference: publication PMC4503722, “Novel Phenotypic Outcomes Identified for a Public Collection of Approved Drugs from a Publicly Accessible Panel of Assays” (PLoS ONE, 2015)
